In patent US20250312469A1 (CANGET BIOTEKPHARMA, priority 2024, published 2025) one finds Papp A→B and recovery data, which are given here for 1 compound.

The data set concerns the target T1, ABCG2/BCRP (Homo sapiens, UniProt Q9UNQ0).
T1 sequence (Q9UNQ0 1-655): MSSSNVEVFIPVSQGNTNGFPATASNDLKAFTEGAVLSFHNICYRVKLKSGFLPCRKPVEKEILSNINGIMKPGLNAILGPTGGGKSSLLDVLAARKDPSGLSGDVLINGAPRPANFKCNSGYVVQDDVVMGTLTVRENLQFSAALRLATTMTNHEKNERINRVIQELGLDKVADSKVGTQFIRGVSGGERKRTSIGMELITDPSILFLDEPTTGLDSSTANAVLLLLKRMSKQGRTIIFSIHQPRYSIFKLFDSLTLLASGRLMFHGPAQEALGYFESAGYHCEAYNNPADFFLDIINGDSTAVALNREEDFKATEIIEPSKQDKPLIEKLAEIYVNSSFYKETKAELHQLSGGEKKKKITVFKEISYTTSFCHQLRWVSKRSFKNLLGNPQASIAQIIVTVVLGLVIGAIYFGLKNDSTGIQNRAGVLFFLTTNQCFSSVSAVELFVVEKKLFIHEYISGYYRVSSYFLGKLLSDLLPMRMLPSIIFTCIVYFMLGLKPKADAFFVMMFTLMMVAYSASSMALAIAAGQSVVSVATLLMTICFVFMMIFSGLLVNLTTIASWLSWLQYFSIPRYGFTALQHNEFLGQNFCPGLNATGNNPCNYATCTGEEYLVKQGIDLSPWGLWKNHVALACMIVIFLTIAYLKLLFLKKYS
The data set can be described thus: in vitro. The settings on record: for recovery at 120 min, 1 µM: Caco-2, pH 7.4, Recovery (%).

Protocol: Cell monolayers were grown to confluence on collagen-coated, microporous, polycarbonate membranes in 12-well Costar® plates. […] The Transwell permeability assay buffer was Hanks' balanced salt solution (HBSS) containing 10 mM HEPES and 15 mM glucose at a pH of 7.4. The buffer in the receiver chamber also contained 1% bovine serum albumin. […] Cell monolayers were dosed on the apical side (A-to-B) or basolateral side (B-to-A) and incubated at 37° C. with 5% CO2 in a humidified incubator. Samples were taken from the donor and receiver chambers at 120 minutes. Each determination was performed in duplicate. The flux of lucifer yellow post-experimentally was also measured for each monolayer to ensure no damage was inflicted to the cell monolayers during the flux period. All samples were assayed by LC-MS/MS using electrospray ionization. […] The apparent permeability (Papp) and percent recovery were calculated as follows:
Where, dCr/dt is the slope of the cumulative concentration in the receiver compartment versus time in μM s^−1; Vr is the volume of the receiver compartment in cm^3; Vd is the volume of the donor compartment in cm^3; A is the area of the insert (1.13 cm^2 for 12-well Transwell); CA is the average of the nominal dosing concentration and the measured 120 minute donor concentration in μM; CN is the nominal concentration of the dosing solution in μM; Cr^final is the cumulative receiver concentration in M at the end of the incubation period; and Cd^final is the concentration of the donor in μM at the end of the incubation period.
Efflux ratio (ER) is defined as Papp (B-to-A)/Papp (A-to-B).

The term Papp A→B denotes how fast a substance crosses the layer from the apical side. Low values mean slow passage, high ones fast passage. Take `CCC1(O)C(=O)OCc2c1cc1n(c2=O)Cc2cc3cc4c(cc3nc2-1)OCO4` (stereo not drawn) [FL118]: the apparent permeability from apical to basolateral (Papp A→B) at 120 min, 1 μM was 10.7 ×10⁻⁶ cm/s (Caco-2, pH 7.4, Papp AVG, Caco-2, A-to-B, first FL118 entry (without Ko143)); 11.2 ×10⁻⁶ cm/s (Caco-2, pH 7.4, Papp R1, Caco-2, A-to-B, first FL118 entry (without Ko143)); 10.3 ×10⁻⁶ cm/s (Caco-2, pH 7.4, Papp R2, Caco-2, A-to-B, first FL118 entry (without Ko143)). The recovery at 120 min, 1 µM is, setting by setting: (Caco-2, A-to-B, first FL118 entry (without Ko143)) 57%; (Caco-2, A-to-B, second FL118 entry (presumably with Ko143)) 57%; (Caco-2, B-to-A, second FL118 entry (presumably with Ko143)) 66%.
